Data set [1] has as its target T1, JNK1 (Homo sapiens, UniProt P45983). The data set is described as follows: Promega NanoBRET intracellular target engagement (tracer K10 displacement), JNK1. Format: cell-based. On the technique in general: Bioluminescence resonance energy transfer reports proximity on the nanometre scale.
In data set [2] the target is T2, JNK3 (Homo sapiens, UniProt P53779). The data set is described as follows: Promega NanoBRET intracellular target engagement (tracer K10 displacement), JNK3. Format: cell-based.
T2 sequence (P53779 whole entry): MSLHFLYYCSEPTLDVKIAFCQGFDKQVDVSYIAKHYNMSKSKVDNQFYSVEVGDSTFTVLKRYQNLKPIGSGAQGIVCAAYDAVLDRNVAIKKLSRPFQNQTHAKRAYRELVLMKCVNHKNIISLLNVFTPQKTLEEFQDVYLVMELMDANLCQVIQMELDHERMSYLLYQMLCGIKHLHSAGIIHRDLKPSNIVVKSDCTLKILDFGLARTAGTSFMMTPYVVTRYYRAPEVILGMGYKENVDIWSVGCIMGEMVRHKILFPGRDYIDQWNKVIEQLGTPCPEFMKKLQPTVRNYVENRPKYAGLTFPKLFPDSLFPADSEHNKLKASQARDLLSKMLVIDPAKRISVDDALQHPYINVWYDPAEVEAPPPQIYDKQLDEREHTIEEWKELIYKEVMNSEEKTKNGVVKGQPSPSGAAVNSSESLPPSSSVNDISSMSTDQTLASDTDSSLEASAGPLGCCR
Data set [3] is described as follows: In vitro metabolism in human liver microsomes. The settings on record: human, microsomes. As for the experimental part: (§1) The target product profile seeks to deliver JNK inhibitor as a once daily oral administration. To prioritize compounds for further development, in vitro metabolism of several CDD JNK inhibitors were determined to approximate the plasma half-life and the rate of metabolism of the compounds in vivo.
(Liver microsomes are a subcellular fraction often used to study metabolism.)

Data set [4] is described as follows: In vitro metabolism in mouse liver microsomes. Conditions: mouse, microsomes. As to the method:
as §1

The target in data set [5] is T2, JNK3. Briefly: JNK3 kinase (intrinsic ATPase, Kinase-Glo) assay. In kind it is biochemical.
The target of data set [6] is T3, JNK2 (Homo sapiens, UniProt P45984). Briefly: Promega NanoBRET intracellular target engagement (tracer K10 displacement), JNK2. In kind it is cell-based.
T3 sequence (P45984 whole entry): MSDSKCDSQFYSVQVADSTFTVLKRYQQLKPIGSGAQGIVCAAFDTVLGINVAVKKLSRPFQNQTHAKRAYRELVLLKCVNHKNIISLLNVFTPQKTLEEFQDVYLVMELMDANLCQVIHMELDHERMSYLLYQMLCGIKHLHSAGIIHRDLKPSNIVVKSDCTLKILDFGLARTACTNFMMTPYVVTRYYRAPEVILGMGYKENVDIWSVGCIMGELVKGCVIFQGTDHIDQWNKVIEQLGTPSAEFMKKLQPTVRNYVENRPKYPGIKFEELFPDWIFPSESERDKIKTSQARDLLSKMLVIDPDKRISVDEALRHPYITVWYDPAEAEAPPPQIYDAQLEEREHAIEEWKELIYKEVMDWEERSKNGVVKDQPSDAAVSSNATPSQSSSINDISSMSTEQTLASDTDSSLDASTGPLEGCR
Data set [7] deals with T1, JNK1. The data set is described as follows: JNK1 kinase (intrinsic ATPase, Kinase-Glo) assay. In kind it is biochemical. As to the method: JNK1, JNK2, and JNK3 hydrolyze ATP to ADP without any peptide substrates. This allows a very robust and fast endpoint assay where the remaining concentration of ATP is measured (BMG ClarioStar Plus plate reader) using the Kinase-Glo Assay kit from Promega (V6711). A luminescence signal is measured, which is produced by the catalytic conversion of beetle luciferin to oxyluciferin by luciferase. Potential inhibition of luciferase (i.e., false negatives) is easily detected, because assays without kinase are always included, and less ATP than is present in this control reaction could also indicate an inhibition of luciferase, which can be excluded by a counter screen with only luciferase.
To mitigate violation of the linear initial velocity principle, which is a problem in end-point assays when doing dose-responses, the enzyme concentration was carefully optimized, in a total assay volume of 25 μL. […] The kinase reaction was done for 30 or 60 min at 30° C., and detection of leftover ATP was measured according to Promega's protocol. […] Fractional activities were obtained from normalized data. Non-linear regression (GraphPad Prism7) and a modified Morrison equation for tight binding was used to determine apparent Ki values for inhibitors, assuming no particular mode of inhibition. An orthogonal binding assay (LanthaScreen) was outsourced to ThermoFisher Scientific's SelectScreen Services to determine IC50 values.

Data set [8] addresses T3, JNK2. The data set is described as follows: JNK2 kinase (intrinsic ATPase, Kinase-Glo) assay. In kind it is biochemical. A general note: In Kinase-Glo more light means more ATP remaining.

Molecules are shown by their SMILES. ≈ marks a conversion by molar mass, not a printed value. Where two headings read alike, the source gives them in different places.

These results are taken from patent publication US20260294922A1, “Inhibitors of JUN N-Terminal Kinases (JNK1, JNK2, and/or JNK3) and Mitogen-Activated Protein Kinases (MAPK8, MAPK9, and/or MAPK10) and Methods of Using Same” (Baylor College of Medicine, priority 2023, published 2026).

T1 sequence (P45983 whole entry): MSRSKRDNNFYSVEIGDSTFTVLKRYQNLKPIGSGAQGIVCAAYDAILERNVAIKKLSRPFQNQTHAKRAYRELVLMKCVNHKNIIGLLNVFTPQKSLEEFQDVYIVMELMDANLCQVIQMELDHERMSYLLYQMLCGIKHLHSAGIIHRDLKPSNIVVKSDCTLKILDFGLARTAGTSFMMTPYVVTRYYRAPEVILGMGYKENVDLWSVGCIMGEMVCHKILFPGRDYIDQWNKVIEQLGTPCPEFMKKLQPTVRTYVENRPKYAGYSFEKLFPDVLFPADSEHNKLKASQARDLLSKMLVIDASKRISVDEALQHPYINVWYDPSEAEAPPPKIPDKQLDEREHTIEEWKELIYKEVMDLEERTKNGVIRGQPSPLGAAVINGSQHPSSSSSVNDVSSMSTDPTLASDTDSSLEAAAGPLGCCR

As a reminder, the IC50 is the concentration needed to halve the response being measured. A higher IC50 goes with a need for much substance. As usually defined, the half-life is the time needed for the level to fall by half in the phase considered. A lower half-life goes with rapid decline. The term Kd denotes the constant that tells how readily two partners part at equilibrium. Consider `Cc1ccc(NC(=O)c2cc3c(-c4cnc5[nH]ccc5c4)cccc3s2)cc1C(=O)N(C)C` [CDD-2729, N-(3-(dimethylcarbamoyl)-4-methylphenyl)-4-(1H-pyrrolo[2,3-b]pyridin-5-yl)benzo[b]thiophene-2-carboxamide], for which the IC50 amounted to 1000 nM on JNK1 [1], 781 nM at JNK3 [2] and 1000 nM at JNK2 [6]. For the same molecule, the figures for the half-life in data set [3] and in [4] were 0.918 h and 0.335 h, respectively. In addition, the Kd at JNK3 [5] (Table 3a, read-out: Kd JNK3) turned out to be 1.93 ± 0.14 nM; on JNK1 [7], 1.2 ± 0.16 nM; on JNK2 [8] (Table 3a, read-out: Kd JNK2), 6.5 ± 0.63 nM.

Take `Cc1c[nH]c2ncc(-c3cccc4sc(C(=O)Nc5ccc(O)c(C(=O)N(C)C)c5)cc34)cc12` [CDD-3017, N-(3-(dimethylcarbamoyl)-4-hydroxyphenyl)-4-(3-methyl-1H-pyrrolo[2,3-b]pyridin-5-yl)benzo[b]thiophene-2-carboxamide]: the concentration for half-maximal inhibition (IC50) on JNK1 [1] was 254 nM; at JNK3 [2] it was 235 nM; on JNK2 [6] it was 228 nM. Moreover, the figures for the half-life in data set [3] and in [4] were 5.97 h and 2.18 h, respectively. Further, the Kd on JNK3 [5] (Table 3a, read-out: Kd JNK3) stood at 2.7 ± 0.29 nM; on JNK1 [7], 0.39 ± 0.12 nM; at JNK2 [8] (Table 3a, read-out: Kd JNK2) it was 2.23 ± 0.12 nM.

For `NC(=O)c1cccc(NC(=O)c2cc3c(-c4cnc5[nH]ccc5c4)cccc3s2)c1` [CDD-2936, N-(3-carbamoylphenyl)-4-(1H-pyrrolo[2,3-b]pyridin-5-yl)benzo[b]thiophene-2-carboxamide], the figures for the IC50 on JNK1 [1], at JNK3 [2] and at JNK2 [6] were 702 nM, 1140 nM and 780 nM, respectively. The figures for the half-life in data set [3] and in data set [4] were 4.55 h and 1.15 h, respectively. For the same molecule, the dissociation constant (Kd) is 3.2 nM on JNK3 [5], 1.62 ± 0.31 nM on JNK1 [7] and 9.09 ± 0.53 nM on JNK2 [8].

Take `CNC(=O)CN1[C@H](CC(=O)NCCCN(C)c2ccc(F)cc2)CNC[C@H]1C` [CDD-2272, N-(3-((4-fluorophenyl)(methyl)amino)propyl)-2-((2R,6R)-6-methyl-1-(2-(methylamino)-2-oxoethyl)piperazin-2-yl)acetamide]: the figures for the IC50 at JNK1 [1] and at JNK2 [6] were 60000 nM and 58000 nM, respectively. Also, the Ki on JNK1 [7] (Table 3b, read-out: Ki(app) JNK1) worked out at 860 nM.

As usually defined, the solubility is how much of the substance goes into solution per volume. A high value points to much dissolved substance. On to `CNC(=O)c1ccc(NC(=O)c2ccn3ncc(-c4cnc5[nH]ccc5c4)c3c2)cc1` [CDD-2461, N-(4-(methylcarbamoyl)phenyl)-3-(1H-pyrrolo[2,3-b]pyridin-5-yl)pyrazolo[1,5-a]pyridine-5-carboxamide], for which the IC50 on JNK1 [1] was 49500 nM; at JNK2 [6] it was 5300 nM. Further, the half-life in [3] came out at 1.19 h; in [4], 0.513 h. For the same molecule, the Kd was found to be 0.33 ± 0.03 nM on JNK3 [5] (Table 3a, read-out: Kd JNK3); 0.2 ± 0.18 nM at JNK1 [7]; 0.32 ± 0.12 nM on JNK2 [8] (Table 3a, read-out: Kd JNK2). The molecule further yielded a solubility in the data set “Solubility” of 1.8 µM (≈ 0.739 µg/mL).

For the molecule `CN(C)C(=O)c1cc(O)cc(NC(=O)c2cc3c(-c4cnc5[nH]ccc5c4)cccc3s2)c1` [CDD-2937, N-(3-(dimethylcarbamoyl)-5-hydroxyphenyl)-4-(1H-pyrrolo[2,3-b]pyridin-5-yl)benzo[b]thiophene-2-carboxamide], the results for the 50% inhibitory concentration (IC50) on JNK1 [1], at JNK3 [2] and at JNK2 [6] were 1600 nM, 1130 nM and 1460 nM, respectively. Moreover, the half-life in data set [3] was determined as 3.22 h; in [4] it was 0.967 h. Moreover, the Kd amounted to 1.67 ± 0.06 nM at JNK3 [5] (Table 3a, read-out: Kd JNK3); 0.28 ± 0.05 nM at JNK1 [7]; 4.53 ± 0.55 nM at JNK2 [8] (Table 3a, read-out: Kd JNK2).

On to `CN(C)C(=O)c1cc(NC(=O)c2cc3c(-c4cnc5[nH]ncc5c4)cccc3s2)ccc1O` [CDD-3018, N-(3-(dimethylcarbamoyl)-4-hydroxyphenyl)-4-(1H-pyrazolo[3,4-b]pyridin-5-yl)benzo[b]thiophene-2-carboxamide], for which the IC50 at JNK3 [2] came out at 31700 nM; at JNK2 [6], 10900 nM. For the same molecule, the half-life turned out to be 8.85 h in data set [3] and 0.98 h in data set [4]. In addition, the dissociation constant Kd at JNK3 [5] (Table 3a, read-out: Kd JNK3) was found to be 5.17 ± 0.33 nM; on JNK1 [7] it was 3.58 ± 0.47 nM; at JNK2 [8] (Table 3a, read-out: Kd JNK2), 11.4 ± 1 nM. The molecule further came in with a solubility in the data set “Solubility” of 1.5 µM (≈ 0.686 µg/mL).
